Experiment [1] concerns the target T1, WRN [UniPro: Q14191 (WRN_HUMAN), N500-C946] (Homo sapiens (Human), UniProt Q14191). Briefly: WRN unwinding assay (FORKF DNA, fluorescence). It is filed as biochemical. The conditions noted are these: Table 14. The protocol:
WRN unwinding assay was initiated to evaluate potential inhibitory effect of compounds for WEN helicase activity. WRN [UniPro: Q14191 (WRN_HUMAN), N500-C946] was expressed and purified in insect system and stored at −80° C. in aliquots. […] Compounds dissolved in DMSO (Sigma, D8418) were plated into a 96-well intermediate plate (BioFil, VWP-032-096) for 3-fold serial titration for 10 points using DMSO, and well-to-well transfer the titrated compounds into another 96-well intermediate plate including assay buffer in advance. Shake the 96-well intermediate plate at 600 rpm for 10 min. to fully mix. Specifically, a 3× working mixture of WRN was diluted to a concentration of 60 nM in assay buffer. […] After centrifuging at 1000 rpm and shaking at 500 rpm, the assay plate was pre-incubated for 30 min. Then, […] 3×FORKF DNA and ATP working mixture was dispensed into assay plate. Plate was sealed, centrifuged and incubated for an additional 40 min. at 25° C. […] Each concentration of compound was tested in duplicates in the assay plate. Average fluorescence signal of high control (Wells with 1% DMSO) was calculated as High Control (HC). Average fluorescence signal of low control (Wells with no WRN protein) was calculated as Low control (LC).
(§1) IC50 values were determined by fitting the data to the standard 4 parameters with Hill Slope using GraphPad Prism software.

Experiment [2] concerns the target T1, WRN [UniPro: Q14191 (WRN_HUMAN), N500-C946]. Briefly: WRN ATPase assay (ADP-Glo). The format is biochemical. The note with it: WRN enzymatic activity assay. The protocol:
WRN ATPase assay was initiated to evaluate potential inhibitory effect of compounds for ATP hydrolysis activity of WRN protein. WRN [UniPro: Q14191 (WRN_HUMAN), N500-C946] was expressed and purified in insect system and stored at −80° C. in aliquots. […] ADP quantity produced from ATP hydrolysis by WRN catalytic reaction was measured using a commercially available ADP-Glo Assay (ADP-Glo™ Kinase Assay from Promega, 10000 assays, #V9102). […] Compounds dissolved in DMSO (Sigma, D8418) were plated into a 96-well intermediate plate (BioFil, VWP-032-096) for 3-fold serial titration for 10 points using DMSO, and well-to-well transfer the titrated compounds into another 96-well intermediate plate including assay buffer in advance. Shake the 96-well intermediate plate at 600 rpm for 10 min to fully mix. Specifically, a 4× working mixture of WRN was diluted to a concentration of 8 nM in assay buffer. […] After centrifuging at 1000 rpm and shaking at 500 rpm, the assay plate was pre-incubated for 30 min. Then, 5 μL 2×FORKF DNA and ATP working mixture was dispensed into assay plate. Plate was sealed, centrifuged and incubated for an additional 40 min. at 37° C. The reaction was stopped with the addition of 10 μL of the first ADP-Glo reagent and incubated for 40 min. to remove the excess amount of ATP. Afterwards, 20 μL of ATP detection reagent was added and incubated for 30 min. before reading. Luminescence output was recorded using BMG CLARIO star plus reader. Each concentration of compound was tested in duplicates in the assay plate. Average luminescence signal of high control (Wells with 1% DMSO) was calculated as High Control (HC). Average luminescence signal of low control (Wells with no WRN protein) was calculated as Low control (LC).
as §1
For orientation: ADP-Glo turns the ADP formed in a reaction into a luminescent signal.

pIC50: −log10 of the molar value.

T1 sequence (Q14191 500-946): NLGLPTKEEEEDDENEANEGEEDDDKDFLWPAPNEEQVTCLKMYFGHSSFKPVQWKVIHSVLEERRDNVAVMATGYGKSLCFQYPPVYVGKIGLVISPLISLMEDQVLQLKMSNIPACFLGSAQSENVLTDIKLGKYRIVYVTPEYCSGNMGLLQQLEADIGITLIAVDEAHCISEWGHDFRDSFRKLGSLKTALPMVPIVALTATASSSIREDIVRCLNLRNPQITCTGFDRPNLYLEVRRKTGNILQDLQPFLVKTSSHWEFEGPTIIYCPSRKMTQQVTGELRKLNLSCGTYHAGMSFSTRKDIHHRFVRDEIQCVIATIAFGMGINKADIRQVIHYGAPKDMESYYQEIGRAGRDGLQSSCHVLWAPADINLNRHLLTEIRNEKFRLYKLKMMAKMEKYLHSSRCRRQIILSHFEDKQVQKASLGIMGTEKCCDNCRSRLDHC

For `CCc1c(N2CCN(C(=O)c3nc(C(F)(F)F)c[nH]3)CC2)c(=O)n2nc(C3=CCOCC3)nc2n1CC(=O)Nc1ccc(C(F)(F)F)cc1Cl` [Example 1, N-(2-Chloro-4-(trifluoromethyl)phenyl)-2-(2-(3,6-dihydro-2H-pyran-4-yl)-5-ethyl-7-oxo-6-(4-(4-(trifluoromethyl)-1H-imidazole-2-carbonyl)piperazin-1-yl)-[1,2,4]triazolo[1,5-a]pyrimidin-4(7H)-yl)acetamide], the negative-log IC50 (pIC50) in experiment [1] and in experiment [2] was 6.00 to 7.00 in each case.

Take `CCc1c(N2CCN(C(=O)c3sc4cccnc4c3N)CC2)c(=O)n2nc(C3=CCOCC3)nc2n1CC(=O)Nc1ccc(C(F)(F)F)cc1Cl` [Example 2, 2-(6-(4-(3-Aminothieno[3,2-b]pyridine-2-carbonyl)piperazin-1-yl)-2-(3,6-dihydro-2H-pyran-4-yl)-5-ethyl-7-oxo-[1,2,4]triazolo[1,5-a]pyrimidin-4(7H)-yl)-N-(2-chloro-4-(trifluoromethyl)phenyl)acetamide]: the pIC50 in experiment [1] and in experiment [2] was 6.00 to 7.00 in each case.

Consider `CCc1c(N2CCN(C(=O)c3cnc4[nH]ncc4c3O)CC2)c(=O)n2nc(C3=CCOCC3)nc2n1CC(=O)Nc1ccc(C(F)(F)F)cc1Cl` [Example 3, N-(2-Chloro-4-(trifluoromethyl)phenyl)-2-(2-(3,6-dihydro-2H-pyran-4-yl)-5-ethyl-6-(4-(4-hydroxy-1H-pyrazolo[3,4-b]pyridine-5-carbonyl)piperazin-1-yl)-7-oxo-[1,2,4]triazolo[1,5-a]pyrimidin-4(7H)-yl)acetamide], for which the pIC50 in experiment [1] and in experiment [2] was greater than 7.00 each time.

Consider `CCc1c(N2CCN(C(=O)c3c(O)cc(C)oc3=O)CC2)c(=O)n2nc(C3=CCOCC3)nc2n1CC(=O)Nc1ccc(C(F)(F)F)cc1Cl` [Example 4, N-(2-Chloro-4-(trifluoromethyl)phenyl)-2-(2-(3,6-dihydro-2H-pyran-4-yl)-5-ethyl-6-(4-(4-hydroxy-6-methyl-2-oxo-2H-pyran-3-carbonyl)piperazin-1-yl)-7-oxo-[1,2,4]triazolo[1,5-a]pyrimidin-4(7H)-yl)acetamide], for which the pIC50 in experiment [1] and in experiment [2] was greater than 7.00 throughout.

Take `CCc1c(N2CCN(C(=O)CNC(=O)c3ccccc3F)CC2)c(=O)n2nc(N3CC(OC)C3)nc2n1CC(=O)Nc1ccc(C(F)(F)F)cc1Cl` [Example 242, N-(2-(4-(4-(2-((2-Chloro-4-(trifluoromethyl)phenyl)amino)-2-oxoethyl)-5-ethyl-2-(3-methoxyazetidin-1-yl)-7-oxo-4,7-dihydro-[1,2,4]triazolo[1,5-a]pyrimidin-6-yl)piperazin-1-yl)-2-oxoethyl)-2-fluorobenzamide]: in experiment [1], the negative logarithm of the IC50 (pIC50) (commonly −log10 of the IC50, conventionally taken in molar units) was 6.00 to 7.00.

Regarding `CCc1c(N2CCN(C(=O)CNC(=O)c3ccccc3F)CC2)c(=O)n2nc(N3CC(C#N)C3)nc2n1CC(=O)Nc1ccc(C(F)(F)F)cc1Cl` [Example 243, N-(2-(4-(4-(2-((2-Chloro-4-(trifluoromethyl)phenyl)amino)-2-oxoethyl)-2-(3-cyanoazetidin-1-yl)-5-ethyl-7-oxo-4,7-dihydro-[1,2,4]triazolo[1,5-a]pyrimidin-6-yl)piperazin-1-yl)-2-oxoethyl)-2-fluorobenzamide], in experiment [1], the pIC50 was 6.00 to 7.00.

As for `CCc1c(N2CCN(C(=O)CNC(=O)c3ccccc3F)CC2)c(=O)n2nc(N3CCOCC3)nc2n1CC(=O)Nc1ccc(C(F)(F)F)cc1Cl` [Example 245, N-(2-(4-(4-(2-((2-Chloro-4-(trifluoromethyl)phenyl)amino)-2-oxoethyl)-5-ethyl-2-morpholino-7-oxo-4,7-dihydro-[1,2,4]triazolo[1,5-a]pyrimidin-6-yl)piperazin-1-yl)-2-oxoethyl)-2-fluorobenzamide], in experiment [1], the negative-log IC50 (pIC50) is greater than 7.00.

With `CCc1c(N2CCN(C(=O)CNC(=O)c3ccccc3N3CCOCC3)CC2)c(=O)n2nc(N3CCOCC3)nc2n1CC(=O)Nc1ccc(C(F)(F)F)cc1Cl` [Example 247, N-(2-(4-(4-(2-((2-Chloro-4-(trifluoromethyl)phenyl)amino)-2-oxoethyl)-5-ethyl-2-morpholino-7-oxo-4,7-dihydro-[1,2,4]triazolo[1,5-a]pyrimidin-6-yl)piperazin-1-yl)-2-oxoethyl)-2-morpholinobenzamide], the pIC50 in experiment [1] is 6.00 to 7.00.

In the case of `CCc1c(N2CCN(C(=O)CNC(=O)c3c(O)cccc3F)CC2)c(=O)n2nc(C3=CCOCC3)nc2n1CC(=O)Nc1ccc(C(F)(F)F)cc1Cl` [Example 294, N-(2-(4-(4-(2-((2-Chloro-4-(trifluoromethyl)phenyl)amino)-2-oxoethyl)-2-(3,6-dihydro-2H-pyran-4-yl)-5-ethyl-7-oxo-4,7-dihydro-[1,2,4]triazolo[1,5-a]pyrimidin-6-yl)piperazin-1-yl)-2-oxoethyl)-2-fluoro-6-hydroxybenzamide], the negative logarithm of the IC50 (pIC50) in experiment [1] is 6.00 to 7.00.

With `CCc1c(N2CCN(C(=O)c3cc4c(OC)ccnc4[nH]3)CC2)c(=O)n2nc(C3=CCOCC3)nc2n1CC(=O)Nc1ccc(C(F)(F)F)cc1Cl` [Example 302, N-(2-Chloro-4-(trifluoromethyl)phenyl)-2-(2-(3,6-dihydro-2H-pyran-4-yl)-5-ethyl-6-(4-(4-methoxy-1H-pyrrolo[2,3-b]pyridine-2-carbonyl)piperazin-1-yl)-7-oxo-[1,2,4]triazolo[1,5-a]pyrimidin-4(7H)-yl)acetamide], the negative-log IC50 (pIC50) in experiment [1] was 6.00 to 7.00.

`CCc1c(N2CCN(C(=O)c3nnc(-c4ccccc4F)[nH]3)CC2)c(=O)n2nc(C3=CCOCC3)nc2n1CC(=O)Nc1ccc(C(F)(F)F)cc1F` [Example 309, 2-(2-(3,6-Dihydro-2H-pyran-4-yl)-5-ethyl-6-(4-(5-(2-fluorophenyl)-4H-1,2,4-triazole-3-carbonyl)piperazin-1-yl)-7-oxo-[1,2,4]triazolo[1,5-a]pyrimidin-4(7H)-yl)-N-(2-fluoro-4-(trifluoromethyl)phenyl)acetamide] gave a negative logarithm of the IC50 (pIC50) in experiment [1] of 6.00 to 7.00.

On to `CCc1c(N2CCN(C(=O)c3c[nH]c(=O)[nH]3)CC2)c(=O)n2nc(C3=CCOCC3)nc2n1CC(=O)Nc1ccc(C(F)(F)F)cc1Cl` [Example 316, N-(2-Chloro-4-(trifluoromethyl)phenyl)-2-(2-(3,6-dihydro-2H-pyran-4-yl)-5-ethyl-7-oxo-6-(4-(2-oxo-2,3-dihydro-1H-imidazole-4-carbonyl)piperazin-1-yl)-[1,2,4]triazolo[1,5-a]pyrimidin-4(7H)-yl)acetamide], for which the pIC50 in experiment [1] is 6.00 to 7.00.

For `CCc1c(N2CCN(C(=O)c3[nH]c(=O)oc3C(F)(F)F)CC2)c(=O)n2nc(C3=CCOCC3)nc2n1CC(=O)Nc1ccc(C(F)(F)F)cc1Cl` [Example 317, N-(2-Chloro-4-(trifluoromethyl)phenyl)-2-(2-(3,6-dihydro-2H-pyran-4-yl)-5-ethyl-7-oxo-6-(4-(2-oxo-5-(trifluoromethyl)-2,3-dihydrooxazole-4-carbonyl)piperazin-1-yl)-[1,2,4]triazolo[1,5-a]pyrimidin-4(7H)-yl)acetamide], the pIC50 in experiment [1] was 6.00 to 7.00.

With `CCc1c(N2CCN(C(=O)/C=C/c3cnccc3O)CC2)c(=O)n2nc(C3=CCOCC3)nc2n1CC(=O)Nc1ccc(C(F)(F)F)cc1F` [Example 328, (E)-2-(2-(3,6-Dihydro-2H-pyran-4-yl)-5-ethyl-6-(4-(3-(4-hydroxypyridin-3-yl)acryloyl)piperazin-1-yl)-7-oxo-[1,2,4]triazolo[1,5-a]pyrimidin-4(7H)-yl)-N-(2-fluoro-4-(trifluoromethyl)phenyl)acetamide], in experiment [1], the negative logarithm of the IC50 (pIC50) was 6.00 to 7.00.

For `CCc1c(N2CCN(C(=O)CNC(=O)CN3CCCC3)CC2)c(=O)n2nc(C3=CCOCC3)nc2n1CC(=O)Nc1ccc(C(F)(F)F)cc1Cl` [Example 339, N-(2-Chloro-4-(trifluoromethyl)phenyl)-2-(2-(3,6-dihydro-2H-pyran-4-yl)-5-ethyl-7-oxo-6-(4-((2-(pyrrolidin-1-yl)acetyl)glycyl)piperazin-1-yl)-[1,2,4]triazolo[1,5-a]pyrimidin-4(7H)-yl)acetamide], the pIC50 in experiment [1] was 6.00 to 7.00.

Values taken from patent publication US20260015358A1, “BICYCLIC DERIVATIVES, COMPOSITIONS AND USES THEREOF” (Danatlas Pharmaceuticals Co., Ltd., priority 2023, published 2026).
